{"source": "ChEMBL document CHEMBL1201862", "about": "“PubChem BioAssay data set” (2004)", "assay_in_all_cases": "growth of human tumour cells (NCI), 48 h", "key": {"UO-31": {"system": "UO-31"}, "ACHN": {"system": "ACHN"}, "OVCAR-3": {"system": "OVCAR-3"}, "HCT-15": {"system": "HCT-15"}, "M14": {"system": "M14"}, "SF-295": {"system": "SF-295"}, "SK-MEL-5": {"system": "SK-MEL-5"}, "CAKI-1": {"system": "CAKI-1"}, "SN12C": {"system": "SN12C"}, "HT-29": {"system": "HT-29"}, "DU-145": {"system": "DU-145"}, "SF-539": {"system": "SF-539"}, "SF-268": {"system": "SF-268"}, "NCI/ADR-RES": {"system": "NCI/ADR-RES"}, "HOP-92": {"system": "HOP-92"}, "MDA-MB-231": {"system": "MDA-MB-231"}, "KM12": {"system": "KM12"}, "NCI-H226": {"system": "NCI-H226"}, "A549": {"system": "A549"}, "OVCAR-4": {"system": "OVCAR-4"}, "PC-3": {"system": "PC-3"}, "MDA-N": {"system": "MDA-N"}, "SNB-75": {"system": "SNB-75"}, "MDA-MB-435": {"system": "MDA-MB-435"}, "TK-10": {"system": "TK-10"}, "SNB-19": {"system": "SNB-19"}, "OVCAR-8": {"system": "OVCAR-8"}, "OVCAR-5": {"system": "OVCAR-5"}, "U-251": {"system": "U-251"}, "IGROV-1": {"system": "IGROV-1"}, "RXF 393": {"system": "RXF 393"}, "HCT-116": {"system": "HCT-116"}, "NCI-H23": {"system": "NCI-H23"}, "SW-620": {"system": "SW-620"}, "EKVX": {"system": "EKVX"}}, "note": "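Dose response: 5 concentrations. Exposure: 48 h. Format: 96-well plates. Endpoint: linear interpolation; highest concentration if not reached. Here, GI50 denotes the concentration required for 50% inhibition of growth.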 Calls of active or inactive are those of the source. Cut-off read from the data, not from the text of the source: active = GI50 up to about 1.1 µM and inactive = higher."}
{"compound": "CC1(C)CC(=O)C2=C(C1)OC1=C(C(=O)CC(C)(C)C1)C2CC(c1ccccc1)c1ccc(O)c(O)c1O", "note": "(stereo not given)", "values": [{"measurement": "GI50", "setting": "UO-31", "result": "> 10 µM (inactive)"}, {"measurement": "GI50", "setting": "ACHN", "result": "> 10 µM (inactive)"}, {"measurement": "GI50", "setting": "OVCAR-3", "result": "3.54 µM (inactive)"}, {"measurement": "GI50", "setting": "HCT-15", "result": 4.18, "unit": "µM"}, {"measurement": "GI50", "setting": "M14", "result": "9.91 µM (inactive)"}, {"measurement": "GI50", "setting": "SF-295", "result": "3.96 µM (inactive)"}, {"measurement": "GI50", "setting": "SK-MEL-5", "result": "5.68 µM (inactive)"}, {"measurement": "GI50", "setting": "CAKI-1", "result": "5.11 µM (inactive)"}, {"measurement": "GI50", "setting": "SN12C", "result": "> 10 µM (inactive)"}, {"measurement": "GI50", "setting": "HT-29", "result": "3.04 µM (inactive)"}, {"measurement": "GI50", "setting": "DU-145", "result": "> 10 µM (inactive)"}, {"measurement": "GI50", "setting": "SF-539", "result": "> 10 µM (inactive)"}, {"measurement": "GI50", "setting": "SF-268", "result": "> 10 µM (inactive)"}, {"measurement": "GI50", "setting": "NCI/ADR-RES", "result": "> 10 µM (inactive)"}, {"measurement": "GI50", "setting": "HOP-92", "result": "5.18 µM (inactive)"}, {"measurement": "GI50", "setting": "MDA-MB-231", "result": "8.91 µM (inactive)"}, {"measurement": "GI50", "setting": "KM12", "result": "3.41 µM (inactive)"}, {"measurement": "GI50", "setting": "NCI-H226", "result": "> 10 µM (inactive)"}, {"measurement": "GI50", "setting": "A549", "result": "3.73 µM (inactive)"}, {"measurement": "GI50", "setting": "OVCAR-4", "result": "6.38 µM (inactive)"}, {"measurement": "GI50", "setting": "PC-3", "result": "2.87 µM (inactive)"}, {"measurement": "GI50", "setting": "MDA-N", "result": "> 10 µM (inactive)"}, {"measurement": "GI50", "setting": "SNB-75", "result": "3.05 µM (inactive)"}, {"measurement": "GI50", "setting": "MDA-MB-435", "result": "8.13 µM (inactive)"}, {"measurement": "GI50", "setting": "TK-10", "result": "> 10 µM (inactive)"}, {"measurement": "GI50", "setting": "SNB-19", "result": "> 10 µM (inactive)"}, {"measurement": "GI50", "setting": "OVCAR-8", "result": "> 10 µM (inactive)"}, {"measurement": "GI50", "setting": "OVCAR-5", "result": "> 10 µM (inactive)"}, {"measurement": "GI50", "setting": "U-251", "result": "> 10 µM (inactive)"}, {"measurement": "GI50", "setting": "IGROV-1", "result": "> 10 µM (inactive)"}, {"measurement": "GI50", "setting": "RXF 393", "result": "> 10 µM (inactive)"}, {"measurement": "GI50", "setting": "HCT-116", "result": "8.81 µM (inactive)"}, {"measurement": "GI50", "setting": "NCI-H23", "result": "5.9 µM (inactive)"}, {"measurement": "GI50", "setting": "SW-620", "result": "3.36 µM (inactive)"}, {"measurement": "GI50", "setting": "EKVX", "result": "> 10 µM (inactive)"}]}
